Results reported in article PMC7828111, “In Search for Multi-Target Ligands as Potential Agents for Diabetes Mellitus and Its Complications—A Structure-Activity Relationship Study on Inhibitors of Aldose Reductase and Protein Tyrosine Phosphatase 1B” (Molecules, 2021).

Columns and labels:
human recombinant AR [1] = target: T1, human recombinant AR (Homo sapiens, UniProt P15121); experiment: Inhibition of human recombinant AR, L-idose as substrate (NADPH oxidation at 340 nm); format: biochemical; details: human recombinant AR, 2 mM L-idose as substrate; mean ± S.E.M
T1 construct: made in house; host or cells: E. coli BL21(DE3)pLysS
Description: The human recombinant AR was expressed in BL21(DE3)pLysS E. coli cells and purified to electrophoretic homogeneity as previously described. The purified enzyme (specific activity 5.0 U/mg) was stored at −80 °C in 10 mM sodium phosphate buffer pH 7.0 containing 2 mM dithiothreitol and 30% (w/v) glycerol. AR activity was determined at 37 °C as previously described evaluating the decrease in absorbance at 340 nm linked to NADPH oxidation. […] One unit of enzyme activity is the amount that catalyzes the conversion of 1 μmol of substrate/min in the above assay conditions.
All compounds tested as aldose reductase inhibitors were dissolved in DMSO and added to the assay mixture containing 8 mU of purified AR. The reaction was started by addition of the substrate. The DMSO concentration in all the assays was kept constant at 0.5% (v/v) in order to avoid effects on AR activity.
The IC50 values were determined by nonlinear regression analysis using Prism GraphPad 6.0 fitting experimental data to the following equation:(1) vi/v0= Max−Min/1+( I/IC50)^slope +Min
In the equation, vi/v0, represents the ratio between the activity measured in the presence of the inhibitor and the activity measured in the absence of inhibitor; Max and Min represent the expected maximal and minimal value of the activity and were fixed at 1 and zero, respectively. Slope, which describes the steepness of curve in the transition region, was fixed at −1. For each compound, at least five different concentrations of inhibitor in the triplicate assay were analyzed.

human recombinant PTP1B = target: T2, human recombinant PTP1B (Homo sapiens, UniProt P18031); experiment: Inhibition of human recombinant PTP1B, p-nitrophenyl phosphate as substrate; format: biochemical; details: human recombinant PTP1B, pNPP as substrate; mean ± S.E.M
T2 sequence (P18031 1-435): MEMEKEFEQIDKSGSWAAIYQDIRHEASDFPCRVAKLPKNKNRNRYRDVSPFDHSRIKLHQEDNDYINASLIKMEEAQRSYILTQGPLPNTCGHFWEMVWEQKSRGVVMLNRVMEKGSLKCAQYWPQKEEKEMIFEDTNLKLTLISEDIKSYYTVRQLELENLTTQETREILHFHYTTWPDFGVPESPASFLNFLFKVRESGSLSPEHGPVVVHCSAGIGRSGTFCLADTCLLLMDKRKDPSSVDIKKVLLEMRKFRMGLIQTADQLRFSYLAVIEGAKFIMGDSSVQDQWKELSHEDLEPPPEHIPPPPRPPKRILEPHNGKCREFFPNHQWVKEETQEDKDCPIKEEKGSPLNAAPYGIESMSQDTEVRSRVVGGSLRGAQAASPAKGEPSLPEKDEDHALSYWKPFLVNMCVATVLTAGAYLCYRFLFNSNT
Description: PTP1B activity was determined as follow. […] After an appropriate interval time, the reaction was stopped diluting assay solution with 2 mL of KOH 0.1 M. The amount of p-nitrophenol released was determined measuring the absorbance of the solution at 400 nm using a spectrophotometer and a 1-cm optical pathlength (εmM of p-nitrophenol is 18). The IC50 value was determined measuring the pNPP hydrolysis rate in the presence of increasing inhibitor concentration. For each inhibitor, 15–16 different concentrations were used. All tests were carried out in triplicate and data obtained were normalized respect to control sample.

human recombinant AR [2] = target: T1, human recombinant AR; experiment: Reversibility of AR inhibition (dialysis); format: biochemical
Description: In order to evaluate the reversibility of the inhibitory action, 8 mU of purified AR were assayed in the presence of 5 μM of compounds 4a, 4e and 4f. In these conditions less than 15% of the enzyme activity was measured in the presence of 2 mM L-idose as substrate. The mixture was then extensively dialysed on Amicon ultrafiltration membrane (cut off 10 KDa) against 10 mM sodium phosphate buffer, pH 7.0. After dialysis, the enzyme activity was again measured as above and compared to that of a mixture in the absence of inhibitor and treated in the same conditions.

C2C12 cells = experiment: Cell viability, MTT assay, C2C12; format: cell-based, murine; details: C2C12, 48 h
Description: Human liver cells (HepG2) and murine myoblasts (C2C12) were purchased by Sigma-Aldrich, which obtained them from the European Collection of Authenticated Cell Cultures (ECACC). HepG2 and C2C12 cells were grown in Dulbecco’s Modified Eagle’s medium (DMEM) supplemented with 10% foetal bovine serum (FBS), 2 mM glutamine, 100 IU/mL penicillin, 100 μg/mL streptomycin (Sigma-Aldrich, St. Louis, MO, USA), in a humidified atmosphere and with 5% CO2 at 37 °C. Differentiation of C2C12 was induced incubating murine myoblasts in DMEM supplemented with 2% horse serum. C2C12 cells were plated and grown until they reach 70% confluence. Then, cells were incubated in the presence of 2% horse serum for 96 h. Every 48 h, the medium was replaced with fresh medium. After 96 h, the degree of differentiation was evaluated analysing cells with a contrast phase microscope.
HepG2 and C2C12 cells were incubated in the presence of increasing concentrations of compounds 4e and 4f for 48 h at 37 °C. After this time, cells were washed with PBS and then incubated for 1 h with 0.5 mg/mL of MTT dissolved in complete medium. Then cells were washed and lysed with 300 μL of DMSO. The absorbance of solutions were evaluated using a microplate readers at 595 nm. All data were normalized respect to control experiment.

[3] = test system: insulin receptor (IRβ) phosphorylation in HepG2 cells; experiment: Insulin receptor phosphorylation in HepG2 cells (western blot); format: cell-based, human
Description: (§1) The insulin mimetic/sensitizing activity of compound 4f was evaluated on both HepG2 and C2C12 cells. Starved HepG2 and C2C12 cells were incubated in the presence of compound 4f (25 μM) for 90 min and after stimulated or not with insulin (10 nM). Then, cells extracts were analysed to evaluate phosphorylation levels of the insulin receptor.
(§2) HepG2 and differentiated C2C12 cells were starved for 24 h and then incubated in the presence of compound 4f (25 μM, final concentration) for 90 min. After this time, cells were washed with PBS and then stimulated or not with 10 nM insulin for 30 min. Then, cells were lysed and cellular proteins separated on a 12% SDS-PAGE. After electrophoresis, cellular proteins were transferred on a PVDF membrane by western blot technique and then probed against antibodies able to specifically recognize insulin receptor (I2033 Sigma Aldrich) or phosphorylated form of IR (MABS65, Sigma-Aldrich). Sample loading was evaluated probing PVDF membrane with anti-actin antibodies (ABT1485 Sigma Aldrich).

[4] = test system: insulin receptor (IRβ) phosphorylation in C2C12 cells; experiment: Insulin receptor phosphorylation in C2C12 cells (western blot); format: cell-based, murine
Description: as §1, §2

IC50 (human recombinant AR [1]): 5.3 ± 0.4 µM
IC50 (human recombinant PTP1B): 12.7 ± 0.3 µM
AR enzyme activity recovered after removal of the inhibitor upon extensive dialysis (human recombinant AR [2]; 5 μM compound before dialysis): more than 90%
AR enzyme activity measured in the presence of compound (human recombinant AR [2]; 5 μM compound, 2 mM L-idose, before dialysis): less than 15%
SMILES: O=C(O)CCN1C(=O)/C(=C/c2ccc(OCCc3ccccc3)cc2)SC1=S [4f, 3-[(5Z)-4-Oxo-{5-[4-(2-phenylethoxy)phenyl]methylidene}-2-thioxothiazolidin-3-yl]propanoic acid]
Concentration at which a reduction of cell viability was observed (C2C12 cells; highest concentration tested): 50 µM
Cytotoxicity (cell viability, MTT) (C2C12 cells; up to 50 μM): well tolerated
Increase of IRβ phosphorylation level after stimulation with insulin ([3]; HepG2, 25 μM for 90 min, then 10 nM insulin 30 min, control cells 39%): 260%
Effect on basal phosphorylation levels of IRβ ([3]; HepG2, 25 μM, 90 min, no insulin): marked reduction
IRβ phosphorylation levels after insulin versus insulin alone ([4]; C2C12, 25 μM for 90 min, then 10 nM insulin 30 min): significantly higher
Effect on basal IR phosphorylation levels ([4]; C2C12, 25 μM, 90 min, no insulin): did not appreciably affect
